Data from publication PMC12048447, “PANTAX: a phase Ib clinical trial of the efflux pump inhibitor SCO-101 in combination with gemcitabine and nab-paclitaxel in non-resectable or metastatic pancreatic cancer” (Investigational New Drugs, 2025).

Test: PANTAX phase Ib: plasma pharmacokinetics of SCO-101
Format: in vivo, human
Description: Pharmacokinetics (PK) blood samples were drawn during the first cycle of treatment on day one of SCO-101 administration (6 time points), on day six (6 time points), and on day nine (72 h after last SCO-101 treatment). Plasma samples were analyzed for SCO-101 using a bioanalytical method (BM/2020/0998) developed and validated under study KF64YR at LabCorp (England). SCO-101 was extracted from human plasma by protein precipitation and analyzed by liquid chromatography using tandem mass spectrometry (LC–MS/MS). Pharmacokinetic parameters were determined by noncompartmental analysis using the software package SAS (version 9.4 or higher). The PK profile of SCO-101 was evaluated by maximum drug plasma concentration (Cmax) and area under the plasma drug concentration–time curve (AUC0 to 8 h).

O=C(Nc1cc(C(F)(F)F)cc(C(F)(F)F)c1)Nc1ccc(Br)cc1-c1nnn[nH]1 [SCO-101]
increase in exposure with dose (50-250 mg daily, Cmax and AUC0-8 h): approximately dose proportional
fraction of SCO-101 Cmax present at day 9 (average, 200 mg and 250 mg doses, 72 h after last SCO-101 treatment): 33%
accumulation of Cmax and AUC0-8 h (daily doses for 6 consecutive days, plasma, patients): two- to threefold
